Laboratory results reported in US10307389B2, “Succinate prodrugs for use in the treatment of lactic acidosis or drug-induced side-effects due to Complex I-related impairment of mitochondrial oxidative phosphorylation” (NEUROVIVE PHARMACEUTICAL AB, priority 2014, dated 2019).

What was measured:
[1] = case report; cited from earlier work
[2] = tested on: permeabilized human peripheral blood mononuclear cells (PBMCs); experiment: High-resolution respirometry of permeabilized human PBMCs; conditions: PBMC, read-out: IC50 for inhibition of OXPHOSCI capacity
Experimental: Real-time respirometric measurements were performed using high-resolution oxygraphs (Oxygraph-2k, Oroboros Instruments, Innsbruck, Austria). The experimental conditions during the measurements were the following: 37° C., 2 mL active chamber volume and 750 rpm stirrer speed. […] For data recording, DatLab software version 4 and 5 were used (Oroboros Instruments, Innsbruck, Austria). Settings, daily calibration and instrumental background corrections were conducted according to the manufacturer's instructions. […] All measurements were performed at a platelet concentration of 200×10^6 cells per mL or a PBMC concentration of 5×10^6 cells per mL. […] Maximal uncoupled respiratory electron transport system capacity supported by convergent input through complex I and […] ) was evaluated by subsequent titration with the protonophore carbonylcyanide p-(trifluoromethoxy) phenylhydrazone (FCCP). […] Complex IV activity was calculated by subtracting the sodium azide value from the TMPD value. With exception of complex IV activity, all respiratory states were measured at steady-state and corrected for ROX. Complex IV activity was measured after ROX determination and not at steady-state.

[3] = patients; cited from earlier work
[4] = tested on: intact human platelets; experiment: Lactate production and pH of intact human platelets; assay type: cell-based; conditions: 8 h; metformin 1 and 10 mM, phenformin 0.5 mM, rotenone 2 μM
Experimental: Lactate levels are determined every 30 min using the Lactate Pro™ 2 blood lactate test meter (Arkray, Alere A B, Lidingö, Sweden) or similar types of measurements. Incubation is performed at 37° C. pH is measured at start, after 4 and after 8 h (or more frequently) of incubation using a Standard pH Meter, e.g. PHM210 (Radiometer, Copenhagen, Denmark). Drug candidates are added to the assay from start or following 30-60 min at concentrations within the range 10 μM-5 mM. […] In order to evaluate the specificity of the drug candidate, it is also tested in combination with a down-stream inhibitor of respiration such as the complex III inhibitor Antimycin at 1 μg/mL, which should abolish the effect of the drug candidate and restore the production of lactate.
Incubation was performed at 37° C. at a stirrer speed of 750 rpm, and pH was measured at start, after 4 and after 8 h of incubation (n=4) using a PHM210 Standard pH Meter (Radiometer, Copenhagen, Denmark).

[5] = tested on: permeabilized human platelets; experiment: cells
Experimental: Lactate production of intact human platelets was determined in PBS containing 10 mM glucose.
Subsequently the FADH2-linked substrate succinate (10 mM) was given to determine convergent complex I- and II-dependent OXPHOS capacity (OXPHOSCI+II). […] Finally, the artificial complex IV substrate N,N,N′,N′-tetramethyl-p-phenylenediamine dihydrochloride (TMPD, 0.5 mM) was added and the complex IV inhibitor sodium azide (10 mM) was given to measure complex IV activity and chemical background, respectively.

For `CN(C)C(=N)N=C(N)N` [Metformin], the “serum level in involuntary intoxication, prior to hemodialysis” value [1] is listed as “over 2 mM” and the IC50 [2] is listed as 450 µM.

In the case of `[H]/N=C(/N)N/C(=N/[H])NCCc1ccccc1` [Phenformin], the “incidence of lactic acidosis” value [3] is listed as 4 cases per 10000 treatment-years, the “lactate production compared to control” value [4] is listed as “significantly more lactate” and the IC50 ([5]; Homo sapiens, Platelet, 10 min, read-out: IC50 for inhibition of OXPHOSCI capacity) is listed as 58 µM. The “ETSCII capacity and complex IV activity” value ([5]; permeabilized platelets, compared to controls) was “not ETSCII or respiration specific to complex IV” and the “potency of OXPHOSCI inhibition relative to metformin” value ([5]; permeabilized platelets, phenformin vs metformin) was 20 fold.
